Assay results published in patent US12441730B2, “PRMT5 inhibitors” (Merck Sharp & Dohme LLC, priority 2019, dated 2025).
pEC50: −log10 of the molar value. Like-named read-outs stand apart in the source and are kept apart here.

Experiments:
[1] = target: T1, Full-length (FL)-PRMT5-MEP50 enzyme complex (Homo sapiens, UniProt O14744); test: PRMT5-MEP50 Enzyme Methylation Assay (Version A); assay type: biochemical
T1 construct: Full-length (FL)-PRMT5-MEP50 enzyme complex (recombinant proteins from baculovirus-transfected Sf21 cells: FL-PRMT5; MW=73837 kDa and FL-MEP50; MW=38614); made in house; host or cells: baculovirus-transfected Sf21 cells
T1 sequence (O14744 whole entry): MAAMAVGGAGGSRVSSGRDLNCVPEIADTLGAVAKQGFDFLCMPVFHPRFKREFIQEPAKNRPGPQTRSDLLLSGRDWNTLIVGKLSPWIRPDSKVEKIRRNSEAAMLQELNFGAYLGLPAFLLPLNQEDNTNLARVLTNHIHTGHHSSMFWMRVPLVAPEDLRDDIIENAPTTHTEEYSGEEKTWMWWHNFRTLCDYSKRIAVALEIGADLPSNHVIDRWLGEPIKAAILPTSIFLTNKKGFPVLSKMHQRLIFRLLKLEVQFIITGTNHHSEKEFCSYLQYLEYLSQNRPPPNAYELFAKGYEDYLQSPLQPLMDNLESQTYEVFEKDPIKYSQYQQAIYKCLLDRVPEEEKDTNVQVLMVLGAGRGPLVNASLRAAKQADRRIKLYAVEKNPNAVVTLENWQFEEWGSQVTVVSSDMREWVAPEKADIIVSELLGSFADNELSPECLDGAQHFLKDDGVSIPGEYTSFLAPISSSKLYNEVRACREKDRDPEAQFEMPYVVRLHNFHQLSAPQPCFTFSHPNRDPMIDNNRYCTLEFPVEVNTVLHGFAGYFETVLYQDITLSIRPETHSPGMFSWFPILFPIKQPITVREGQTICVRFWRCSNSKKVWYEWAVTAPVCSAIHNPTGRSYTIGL
T1 sequence (Q9BQA1 whole entry partner): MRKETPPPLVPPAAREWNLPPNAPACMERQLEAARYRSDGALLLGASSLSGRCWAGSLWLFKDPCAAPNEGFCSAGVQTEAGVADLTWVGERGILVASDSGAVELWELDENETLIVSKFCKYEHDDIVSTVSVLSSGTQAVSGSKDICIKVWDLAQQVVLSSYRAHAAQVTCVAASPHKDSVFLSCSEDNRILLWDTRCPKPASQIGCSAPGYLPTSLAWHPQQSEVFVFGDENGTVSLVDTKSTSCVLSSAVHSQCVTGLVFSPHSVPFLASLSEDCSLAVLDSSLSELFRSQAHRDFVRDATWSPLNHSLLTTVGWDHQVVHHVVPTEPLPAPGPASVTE
How it was run: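 Compound was pre-incubated with enzyme for 60 min, then reacted 150 min at 37° C. at final 1.0 nM PRMT5-MEP50, 15 μM SAM and 75 nM biotinylated H4R3(Me1) peptide, in 50 mM Bicine pH 8.0 with 1% DMSO. SAMDI mass-spectrometric readout of Me1→Me2 conversion. EC50 from 4- or 7-parameter regression.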

[2] = test system: symmetric dimethylation of arginine (SDMA) of PRMT5 substrates in MCF-7 cells; test: PRMT5 Cell Target Engagement (TE) Assay; assay type: cell-based; conditions: Homo sapiens, MCF7, 72 h, 3 days treatment, SDMA high content imaging
How it was run: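 Readout is single-cell nuclear symmetric-dimethylarginine immunofluorescence (Alexa488), normalized to DMSO-treated cells. Compounds were applied to MCF-7 cells for 3 days at 37 °C, top concentration 10000 nM in 1:3 steps over ten points; curves fitted with 4-parameter robust fit.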

[3] = second value of 7 parameter biphasic fit, read-out: Enzyme Methylation Assay Version A (EC50 2)
[4] = single EC50 = 4 parameter single site sigmoidal fit, EC50 1 = first value of 7 parameter biphasic fit, read-out: Enzyme Methylation Assay Version A (EC50 or EC50 1)

Row | pEC50 [1, 3] | pEC50 [1, 4] | pEC50 [2] | SMILES
1 | 6.26 | 9.40 | 7.51 | Cc1c(C(=O)N2CC[C@]3(Cc4ccccc4CN3)[C@H](O)C2)nn2cc(Br)cnc12 [Example 62, (6-bromo-3-methylpyrazolo[1,5-a]pyrimidin-2-yl)[(3R,3′R)-3′-hydroxy-1,4-dihydro-1′H,2H-spiro[isoquinoline-3,4′-piperidin]-1′-yl]methanone]
2 | 6.38 | 9.23 | 7.34 | Cc1nc2nc(C(=O)N3CC[C@]4(Cc5ccccc5CN4)[C@H](O)C3)cn2cc1C1CC1 [Example 63, (6-cyclopropyl-7-methylimidazo[1,2-a]pyrimidin-2-yl)[(3R,3′R)-3′-hydroxy-1,4-dihydro-1′H,2H-spiro[isoquinoline-3,4′-piperidin]-1′-yl]methanone]
3 | 5.01 | 7.72 | 6.12 | Cc1c(C2CC2)cnc2nc(C(=O)N3CC[C@]4(Cc5ccccc5CN4)[C@H](O)C3)cn12 [Example 64, (6-cyclopropyl-5-methylimidazo[1,2-a]pyrimidin-2-yl)[(3R,3′R)-3′-hydroxy-1,4-dihydro-1′H,2H-spiro[isoquinoline-3,4′-piperidin]-1′-yl]methanone]
4 | 5.86 | 8.92 | 7.00 | Cc1nc(Br)cn2cc(C(=O)N3CC[C@]4(Cc5ccccc5CN4)[C@H](O)C3)nc12 [Example 65, (6-bromo-8-methylimidazo[1,2-a]pyrazin-2-yl)[(3R,3′R)-3′-hydroxy-1,4-dihydro-1′H,2H-spiro[isoquinoline-3,4′-piperidin]-1′-yl]methanone]
5 | 5.03 | 7.86 | 5.36 | Cc1cn2cc(C(=O)N3CC[C@]4(Cc5ccccc5CN4)[C@H](O)C3)nc2c(O)n1 [Example 66, 2-{[(3R,3′R)-3′-hydroxy-1,4-dihydro-1′H,2H-spiro[isoquinoline-3,4′-piperidin]-1′-y1]carbonyl}-6-methylimidazo[1,2-a]pyrazin-8(7H)-one]
6 | 6.51 | 9.45 | 8.10 | COC(C)c1cc(C(F)(F)F)cn2cc(C(=O)N3CC[C@]4(Cc5ccccc5CN4)[C@H](O)C3)nc12 (stereo partly drawn) [Example 67, [(3R,3′R)-3′-hydroxy-1,4-dihydro-1′H,2H-spiro[isoquinoline-3,4′-piperidin]-1′-yl][8-(1-methoxyethyl)-6-(trifluoromethyl)imidazo[1,2-a]pyridin-2-yl]methanone]
7 | 5.98 | 8.93 | 7.00 | N#CC1(c2cc(Br)cn3cc(C(=O)N4CC[C@]5(Cc6ccccc6CN5)[C@H](O)C4)nc23)CC1 [Example 68, 1-(6-bromo-2-{[(3R,3′R)-3′-hydroxy-1,4-dihydro-1′H,2H-spiro[isoquinoline-3,4′-piperidin]-1′-yl]carbonyl}imidazo[1,2-a]pyridin-8-yl)cyclopropanecarbonitrile]
8 | 7.36 | 9.39 | 7.90 | CC(C#N)c1ccc2nc(C(=O)N3CC[C@]4(Cc5ccccc5CN4)[C@H](O)C3)cn2c1 (stereo partly drawn) [Example 69, 2-(2-{[(3R,3′R)-3′-hydroxy-1,4-dihydro-1′H,2H-spiro[isoquinoline-3,4′-piperidin]-1′-yl]carbonyl}imidazo[1,2-a]pyridin-6-yl)propanenitrile]
9 | 6.62 | 9.57 | 6.58 | O=C(c1cc2ncc(C3CC3)cn2n1)N1CC[C@]2(Cc3ccccc3CN2)[C@H](O)C1 [Example 70, (6-cyclopropylpyrazolo[1,5-a]pyrimidin-2-yl)[(3R,3′R)-3′-hydroxy-1,4-dihydro-1′H,2H-spiro[isoquinoline-3,4′-piperidin]-1′-yl]methanone]
10 | 5.08 | 6.87 | 5.82 | O=C(c1cn2ncc(Br)cc2n1)N1CC[C@]2(Cc3ccccc3CN2)[C@H](O)C1 [Example 71, (7-bromoimidazo[1,2-b]pyridazin-2-yl)[(3R,3′R)-3′-hydroxy-1,4-dihydro-1′H,2H-spiro[isoquinoline-3,4′-piperidin]-1′-yl]methanone]
11 | 6.47 | 8.41 | 7.11 | Cc1nc(C(F)(F)F)cn2cc(C(=O)N3CC[C@]4(Cc5ccccc5CN4)[C@H](O)C3)nc12 [Example 72, [(3R,3′R)-3′-hydroxy-1,4-dihydro-1′H,2H-spiro[isoquinoline-3,4′-piperidin]-1′-yl][8-methyl-6-(trifluoromethyl)imidazo[1,2-a]pyrazin-2-yl]methanone]
12 | 6.46 | 8.35 | 6.47 | O=C(c1cc2ncc(C(F)(F)F)cn2n1)N1CC[C@]2(Cc3ccccc3CN2)[C@H](O)C1 [Example 73, [(3R,3′R)-3′-hydroxy-1,4-dihydro-1′H,2H-spiro[isoquinoline-3,4′-piperidin]-1′-yl][6-(trifluoromethyl)pyrazolo[1,5-a]pyrimidin-2-yl]methanone]
13 | 7.11 | 9.29 | 7.34 | Cn1nccc1-c1cnc2nc(C(=O)N3CC[C@]4(Cc5ccccc5CN4)[C@H](O)C3)cn2c1 [Example 78, [(3R,3′R)-3′-hydroxy-1,4-dihydro-1′H,2H-spiro[isoquinoline-3,4′-piperidin]-1′-yl][6-(1-methyl-1H-pyrazol-5-yl)imidazo[1,2-a]pyrimidin-2-yl]methanone]
14 |  | 8.97 | 8.28 | Cc1nc(C)c(-c2cnc3nc(C(=O)N4CC[C@]5(Cc6ccccc6CN5)[C@H](O)C4)cn3c2)s1 [Example 79, [6-(2,4-dimethyl-1,3-thiazol-5-yl)imidazo[1,2-a]pyrimidin-2-yl][(3R,3′R)-3′-hydroxy-1,4-dihydro-1′H,2H-spiro[isoquinoline-3,4′-piperidin]-1′-yl]methanone]
15 | 6.54 | 9.33 | 7.96 | COC(C)c1cc(C(C)C)cn2cc(C(=O)N3CC[C@]4(Cc5ccccc5CN4)[C@H](O)C3)nc12 (stereo partly drawn) [Example 84, A diastereomer of [(3R,3′R)-3′-hydroxy-1,4-dihydro-1′H,2H-spiro[isoquinoline-3,4′-piperidin]-1′-yl][6-isopropyl-8-(1-methoxyethyl)imidazo[1,2-a]pyridin-2-yl]methanone]
16 | 4.45 | 7.38 | 5.57 | Cc1ccn2cc(C(=O)N3CC[C@]4(Cc5ccccc5CN4)[C@H](O)C3)nc2n1 [Example 111, [(3R,3′R)-3′-hydroxy-1,4-dihydro-1′H,2H-spiro[isoquinoline-3,4′-piperidin]-1′-yl](7-methylimidazo[1,2-a]pyrimidin-2-yl)methanone]
17 | 6.57 | 9.15 | 8.17 | COCc1cc(Cl)cn2cc(C(=O)N3CC[C@]4(Cc5ccccc5CN4)[C@H](O)C3)nc12 [Example 112, (6-chloro-8-(methoxymethyl)imidazo[1,2-a]pyridin-2-yl)((3R,3′R)-3′-hydroxy-1,4-dihydro-2H-spiro[isoquinoline-3,4′-piperidin]-1′-yl)methanone]
18 | 6.47 | 9.17 | 7.76 | COCc1cc(C)cn2cc(C(=O)N3CC[C@]4(Cc5ccccc5CN4)[C@H](O)C3)nc12 [Example 113, ((3R,3′R)-3′-hydroxy-1,4-dihydro-2H-spiro[isoquinoline-3,4′-piperidin]-1′-yl)(8-(methoxymethyl)-6-methylimidazo[1,2-a]pyridin-2-yl)methanone]
19 | 5.19 | 7.93 | 6.56 | Cc1c(Br)cnc2nc(C(=O)N3CC[C@]4(Cc5ccccc5CN4)[C@H](O)C3)cn12 [Example 119, (6-bromo-5-methylimidazo[1,2-a]pyrimidin-2-yl)[(3R,3′R)-3′-hydroxy-1,4-dihydro-1′H,2H-spiro[isoquinoline-3,4′-piperidin]-1′-yl]methanone]
20 | 6.45 | 9.30 | 7.54 | Cc1cnc2nc(C(=O)N3CC[C@]4(Cc5ccccc5CN4)[C@H](O)C3)cn2c1 [Example 120, [(3R,3′R)-3′-hydroxy-1,4-dihydro-1′H,2H-spiro[isoquinoline-3,4′-piperidin]-1′-yl](6-methylimidazo[1,2-a]pyrimidin-2-yl)methanone]
21 | 5.48 | 8.31 | 7.18 | O=C(c1cn2cc(Br)c(C(F)(F)F)nc2n1)N1CC[C@]2(Cc3ccccc3CN2)[C@H](O)C1 [Example 121, [6-bromo-7-(trifluoromethyl)imidazo[1,2-a]pyrimidin-2-yl][(3R,3′R)-3′-hydroxy-1,4-dihydro-1′H,2H-spiro[isoquinoline-3,4′-piperidin]-1′-yl]methanone]
22 | 5.62 | 8.07 | 5.48 | Cc1ccnc2nc(C(=O)N3CC[C@]4(Cc5ccccc5CN4)[C@H](O)C3)cn12 [Example 124, [(3R,3′R)-3′-hydroxy-1,4-dihydro-1′H,2H-spiro[isoquinoline-3,4′-piperidin]-1′-yl](5-methylimidazo[1,2-a]pyrimidin-2-yl)methanone]
23 | 6.53 | 9.29 | 7.86 | COc1cc2nc(C(=O)N3CC[C@]4(Cc5ccccc5CN4)[C@H](O)C3)cn2cc1Br [Example 125]
24 | 5.30 | 8.15 | 6.40 | Cc1cn2cc(C(=O)N3CC[C@]4(Cc5ccccc5CN4)[C@H](O)C3)nc2nc1C [Example 126, (6,7-dimethylimidazo[1,2-a]pyrimidin-2-yl)[(3R,3′R)-3′-hydroxy-1,4-dihydro-1′H,2H-spiro[isoquinoline-3,4′-piperidin]-1′-yl]methanone]
